Test results published in US7427395B2, “Chemotherapeutic agent-incorporated pharmaceutical preparation” (Genomidea Inc., priority 2002, dated 2008).
Like-named read-outs stand apart in the source and are kept apart here.

Assays:
[1] = test system: Mouse colon cancer-derived CT-26 cells; assay: In vivo experiment (2): tumor volume and tumor weight of transplanted CT-26, HVJ-E/BLM into the tumor with or without intraperitoneal CDDP (Example 3); set-up: species or system BALB/cAnNCrj male mice
colon carcinoma CT26 = assay: In vivo experiment: tumor volume of subcutaneously transplanted CT26 after administration into the tumor (Example 2); conditions: for average tumor volume (mean): 100 μl/mouse into the tumor, n=8
Description: A microtube containing the sample was centrifuged at 15,000 rpm for 15 minutes at 4° C. to give the HVJ-E vector as a precipitate, and the supernatant was removed. […] Further, 2 μl of 3% Triton-X100 was added thereto to the final concentration of 0.1%, which was then kept on ice for 15 minutes. Thereafter, 500 μl PBS solution was added thereto. The microtube was centrifuged at 15,000 rpm for 15 minutes at 4° C., and the supernatant was removed without removing the precipitate, and 500 μl PBS solution was added thereto. The microtube was centrifuged again at 15,000 rpm for 15 minutes at 4° C., and the supernatant was removed without removing the precipitate. The resulting precipitate was suspended in 120 μl PBS.
In this animal experiment, BALB/c mice (8-week-old, male) were used. […] The CT-26 cells to be transplanted were suspended in DMEM medium containing 10% FCS, and 5×10^6 cells (100 μl PBS/mouse) were transplanted in the back. The mice were anesthetized by intraperitoneal administration of 500 μl of 20-fold-diluted Nembutal injection. The volume of the transplanted cancer cells was estimated by calculation of major axis×minor axis×minor axis/2. When the diameter of the tumor reached 7 to 8 mm one week after transplantation, 100 μl of the sample prepared above was administered into the site of the cancer in the mouse. On Days 7, 10, 13, 16 and 19 (that is, 3-day intervals) after transplantation of the cancer cells, the tumor diameter was measured to evaluate the anticancer effect. The number of animals was 8 in each group.

[2] = test system: mouse colon carcinoma cell CT26; conditions: 30 min at 37° C., counted 2 days later
Description: A microtube containing the sample was centrifuged at 15,000 rpm for 15 minutes at 4° C. to give the HVJ-E vector as a precipitate, and the supernatant was removed. […] Further, 2 μl of 3% Triton-X100 was added thereto to prepare a sample containing Triton-X100 at a final concentration of 0.1%, which was then left on ice for 15 minutes. Thereafter, 500 μl PBS solution was added thereto. The microtube was centrifuged at 15,000 rpm for 15 minutes at 4° C., and the supernatant was removed without removing the precipitate, and 500 μl PBS solution was added again to the precipitate. The microtube was centrifuged again at 15,000 rpm for 15 minutes at 4° C., and the supernatant was removed without removing the precipitate.
The resulting precipitate was suspended in 180 μl PBS, and the resulting sample solution was pipetted in a volume of 30 μl/microtube into 6 microtubes. Five microlitters of protamine sulfate solution prepared at 5 mg/ml and 500 μl DMEM solution (Dulbecco's modified Eagle medium) were added to each tube.
The above sample solution was added to mouse colon carcinoma cell CT26 prepared on a 6-well plate. The plate was kept for 30 minutes in an incubator at 37° C., and then the medium was exchanged with 500 μl medium (DMEM containing 10% FCS). The cells were incubated for 2 days in a CO2 incubator at 37° C. Two days later, the number of viable cells was counted to evaluate the anticancer effect.

[3] = Day 16 (9 days after sample administration)

Compound	tumor weight on Day 21 after administration ([1]; CDDP 0.2 mg/body i.p. once, alone or with 13 mg/tumor HVJ-E/BLM into the tumor)	average tumor volume on Day 21 ([1]; CDDP 0.2 mg/body i.p. once, alone or with 13 mg/tumor HVJ-E/BLM into the tumor, 10 mice)	tumor weight on Day 21 after administration ([1]; CDDP 0.4 mg/body i.p. once, alone or with HVJ-E into the tumor)	average tumor volume on Day 21 ([1]; CDDP 0.4 mg/body i.p. once, 3 mice)	average tumor volume (mean) (colon carcinoma CT26; Day 7 (time of sample administration))	average tumor volume (mean) (colon carcinoma CT26; Day 10 (Day 3 after sample administration))	average tumor volume (mean) (colon carcinoma CT26; Day 13)	tumor volume shrinkage effect relative to the PBS administration group (0%) (colon carcinoma CT26; [3])	average tumor volume (mean) (colon carcinoma CT26; [3])	average tumor volume (mean) (colon carcinoma CT26; Day 16 (9 days after sample administration), listed as BLM)	antitumor effect in vivo (in words) (colon carcinoma CT26; direct administration into the solid tumor)	Number of viable cells (mean) ([2]; 1/50 bleomycin group: bleomycin 50 μg/DMEM 500 μl/well)	Number of viable cells (mean) ([2]; 1/500 bleomycin group: bleomycin 5 μg/DMEM 500 μl/well)	Number of viable cells (mean) ([2]; 1/500 bleomycin group: bleomycin 5 μg/DMEM 500 μl/well, listed as bleomycin)	Number of viable cells (mean) ([2]; 1/5,000 bleomycin group: bleomycin 500 ng/DMEM 500 μl/well)	Number of viable cells (mean) ([2]; 1/5,000 bleomycin group: bleomycin 500 ng/DMEM 500 μl/well, listed as bleomycin)
[NH2][Pt]([NH2])([Cl])[Cl] [CDDP, cisplatin]	1619.79 mg	1720.14 mm^3	1164.13 mg	1367.62 mm^3	–	–	–	–	–	–	–	–	–	–	–	–
bleomycin	–	–	–	–	158.4 mm^3	413.70 mm^3	754.7 mm^3	3.4%	1234.6 mm^3	1,235 mm^3	Antitumor effect was hardly recognized	81800	164600	164,600	196800	196,800
